# Laboratory results reported in patent US20140113014A1, “CHICORY FOR PREVENTION AND TREATMENT OF NEURODEGENERATION” (NESTEC S.A., priority 2011, published 2014).
# Tested on: primary cortical neurons
# Assay: Primary cortical neuron aging model, neuronal survival by NeuN count
# Type: cell-based, rat
# Conditions: run in parallel with the chicory extract
# Excerpt: A primary cortical culture system to study the effects of compounds on neuronal aging has been developed and applied to study the effects of chicory on neuronal survival. This cell culture system has been developed as a model of neuronal aging in order to mimic processes which occur during normal aging of neurons without a neurotoxic challenge. With this model beneficial effects against physiological neurodegeneration during aging can be studied and compounds which increase neuronal survival can be identified. This is a different approach from the models described in the prior art in which the cells are challenged with a neurotoxic insult in order to induce different degrees of neurodegeneration. Using immune-cytochemical analysis of the antigen, NeuN (Neuronal Nuclei), which is a sensitive marker of neurodegeneration, a reliable method for examining the lifespan of cortical neurons in culture has been established. The sensitivity of NeuN can be attributed to its steady reduction in expression intensity as neurons degenerate, which is in contrast to many antigens whose expression can distinguish only between living and dead neurons. Between four and six weeks after plating, the cortical neurons begin to degenerate, leading to a […] in NeuN count over this time (FIG. 1A). […] All tests were fixed at a time point between 6 and 8 weeks. […]
structure (smiles),measurement,value
O=C(Nc1cccc([N+](=O)[O-])c1)c1cccc(S(=O)(=O)N2CCCCCC2)c1 [AK-1],neuroprotective effect of the positive control relative to the chicory extract,smaller neuroprotective effect than the chicory extract
same,neuroprotective effect of the positive control versus non-treated cells,significantly positive over non-treated cells
